Experimental data taken from patent publication US20120270237A9, “METHODS FOR THE IDENTIFICATION OF KINASE INTERACTING MOLECULES AND FOR THE PURIFICATION OF KINASE PROTEINS” (Cellzone AG, priority 2009, published 2012).

Columns and labels:
Test in all cases: Kinobeads competition binding, L-363 cell lysate
Details in all cases: 10 μM free compound, L-363 lysate
[1] = target: T1, JAK3 (Homo sapiens, UniProt P52333)
T1 construct: capturing and identification of kinases from L-363 cell lysate; endogenous in cells; host or cells: L-363 (DSMZ ACC49), treated with MG132 before harvest
Protocol: (§1) To one aliquot of cell lysate 10 μM of the free compound (FIG. 3, CZC31326) was added and allowed to bind to proteins in the lysate. Then the affinity matrix with the immobilized compound was added to capture proteins that were not interacting with the previously added free compound. Beads were separated from the lysate and bead bound proteins were eluted in SDS sample buffer and subsequently separated by SDS-Polyacrylamide gel electrophoresis (FIG. 8). Suitable gel bands were cut out and subjected to in-gel proteolytic digestion with trypsin. The second lysate aliquot was processed identically, however no free compound was added (DMSO solvent control). Peptides originating from samples 1 and 2 were labeled with iTRAQ reagents (iTRAQ 114 and iTRAQ 117) and the combined samples were analyzed with a nano-flow liquid chromatography system coupled online to a tandem mass spectrometer (LC-MS/MS) experiment followed by iTRAQ reporter ion quantification in the MS/MS spectra as described in Example 2.
(§2) For this experiment the human plasma cell leukaemia line L-363 was used (German Collection of Microorganisms and Cell Cultures, DSMZ number ACC49, Braunschweig, Germany). Cells were treated for three hours with 20 μM of the proteasome inhibitor MG132 (Z-Leu-Leu-Leu-al, Sigma C2211) prior to cell harvesting.

[2] = target: T2, NEK1 (Homo sapiens, UniProt Q96PY6)
T2 construct: capturing and identification of kinases from L-363 cell lysate; endogenous in cells; host or cells: L-363 (DSMZ ACC49), treated with MG132 before harvest
Protocol: as §1, §2

[3] = target: T3, RSK4 (Homo sapiens, UniProt Q9UK32)
T3 construct: endogenous in cells; host or cells: L-363 (DSMZ ACC49), treated with MG132 before harvest
Protocol: as §1, §2

[4] = target: T4, ULK3 (Homo sapiens, UniProt Q6PHR2)
T4 sequence (Q6PHR2 1-472): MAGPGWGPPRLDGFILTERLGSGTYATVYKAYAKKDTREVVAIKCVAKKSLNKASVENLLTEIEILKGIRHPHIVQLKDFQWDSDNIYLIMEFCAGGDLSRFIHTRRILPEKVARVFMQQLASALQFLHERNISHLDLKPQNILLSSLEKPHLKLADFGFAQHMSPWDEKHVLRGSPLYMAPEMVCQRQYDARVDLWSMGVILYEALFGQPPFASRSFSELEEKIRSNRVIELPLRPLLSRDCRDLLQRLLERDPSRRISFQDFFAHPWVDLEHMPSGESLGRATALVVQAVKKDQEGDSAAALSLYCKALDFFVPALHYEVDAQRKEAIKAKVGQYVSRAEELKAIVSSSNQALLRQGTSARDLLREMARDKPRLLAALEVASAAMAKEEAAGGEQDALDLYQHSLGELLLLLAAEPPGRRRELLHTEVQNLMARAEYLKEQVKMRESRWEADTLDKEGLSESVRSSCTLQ
Protocol: as §1, §2

[5] = target: T5, NEK3 (Homo sapiens, UniProt P51956); set-up: endogenous in cells; host or cells: L-363 (MG132-treated)
T5 sequence (P51956 1-506): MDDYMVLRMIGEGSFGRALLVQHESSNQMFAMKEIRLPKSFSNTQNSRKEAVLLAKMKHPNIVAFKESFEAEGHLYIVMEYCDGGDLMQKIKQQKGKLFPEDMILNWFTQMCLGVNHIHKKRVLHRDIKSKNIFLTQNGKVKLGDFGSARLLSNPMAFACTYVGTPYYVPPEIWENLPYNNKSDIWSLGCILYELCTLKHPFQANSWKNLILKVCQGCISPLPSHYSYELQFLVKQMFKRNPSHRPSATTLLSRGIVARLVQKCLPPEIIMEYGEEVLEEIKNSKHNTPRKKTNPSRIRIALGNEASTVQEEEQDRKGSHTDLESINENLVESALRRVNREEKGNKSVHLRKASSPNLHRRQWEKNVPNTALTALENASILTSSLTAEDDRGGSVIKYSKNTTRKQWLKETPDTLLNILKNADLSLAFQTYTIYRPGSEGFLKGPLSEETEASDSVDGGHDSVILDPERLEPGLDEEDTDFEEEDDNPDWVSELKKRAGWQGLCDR
Protocol: as §1, §2

[6] = target: T6, NEK9 (Homo sapiens, UniProt Q8TD19); set-up: endogenous in cells; host or cells: L-363 (MG132-treated)
T6 sequence (Q8TD19 1-979): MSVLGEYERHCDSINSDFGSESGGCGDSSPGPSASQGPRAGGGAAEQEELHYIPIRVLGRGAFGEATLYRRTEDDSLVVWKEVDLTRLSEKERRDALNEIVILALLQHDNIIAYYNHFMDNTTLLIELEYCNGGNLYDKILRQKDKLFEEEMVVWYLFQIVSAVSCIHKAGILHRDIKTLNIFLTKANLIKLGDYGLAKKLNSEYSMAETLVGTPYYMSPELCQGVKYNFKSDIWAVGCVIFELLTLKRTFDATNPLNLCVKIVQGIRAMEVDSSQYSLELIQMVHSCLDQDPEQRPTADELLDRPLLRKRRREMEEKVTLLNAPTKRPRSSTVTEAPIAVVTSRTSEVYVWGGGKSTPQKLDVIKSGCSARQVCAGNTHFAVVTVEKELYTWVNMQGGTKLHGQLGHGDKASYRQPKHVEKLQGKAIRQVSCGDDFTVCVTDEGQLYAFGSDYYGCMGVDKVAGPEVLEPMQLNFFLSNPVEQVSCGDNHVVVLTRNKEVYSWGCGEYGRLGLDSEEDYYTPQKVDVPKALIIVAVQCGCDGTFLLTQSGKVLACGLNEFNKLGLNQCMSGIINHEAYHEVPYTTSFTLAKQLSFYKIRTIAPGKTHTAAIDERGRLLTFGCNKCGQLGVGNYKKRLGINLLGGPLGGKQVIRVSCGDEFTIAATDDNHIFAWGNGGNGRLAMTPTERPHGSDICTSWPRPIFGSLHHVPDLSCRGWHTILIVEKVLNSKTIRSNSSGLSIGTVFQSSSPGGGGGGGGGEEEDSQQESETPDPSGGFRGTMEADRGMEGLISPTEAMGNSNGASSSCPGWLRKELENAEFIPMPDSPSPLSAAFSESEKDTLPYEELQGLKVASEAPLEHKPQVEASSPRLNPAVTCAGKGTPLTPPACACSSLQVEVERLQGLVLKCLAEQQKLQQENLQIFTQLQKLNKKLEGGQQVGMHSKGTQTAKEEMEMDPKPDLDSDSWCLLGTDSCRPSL
Protocol: as §1, §2

[7] = target: PAK4 (Homo sapiens, UniProt O96013); set-up: endogenous in cells; host or cells: L-363 (MG132-treated)
Protocol: as §1, §2

Chain of PAK4 (O96013 whole entry): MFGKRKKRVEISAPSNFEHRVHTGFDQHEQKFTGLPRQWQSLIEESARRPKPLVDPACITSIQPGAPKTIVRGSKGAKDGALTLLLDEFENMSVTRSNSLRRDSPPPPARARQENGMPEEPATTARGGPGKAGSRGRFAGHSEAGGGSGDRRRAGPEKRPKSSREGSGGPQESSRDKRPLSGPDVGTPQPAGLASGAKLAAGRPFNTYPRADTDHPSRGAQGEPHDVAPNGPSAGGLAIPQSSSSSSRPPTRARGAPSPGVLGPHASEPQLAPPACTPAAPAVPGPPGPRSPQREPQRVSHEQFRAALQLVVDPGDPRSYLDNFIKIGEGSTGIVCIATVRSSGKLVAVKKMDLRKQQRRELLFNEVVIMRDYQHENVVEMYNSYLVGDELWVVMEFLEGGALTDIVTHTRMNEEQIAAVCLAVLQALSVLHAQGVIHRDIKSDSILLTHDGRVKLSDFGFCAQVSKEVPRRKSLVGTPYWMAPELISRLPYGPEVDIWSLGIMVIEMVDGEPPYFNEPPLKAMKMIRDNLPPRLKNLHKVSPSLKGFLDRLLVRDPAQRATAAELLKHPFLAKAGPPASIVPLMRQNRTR
T1 sequence (P52333 whole entry): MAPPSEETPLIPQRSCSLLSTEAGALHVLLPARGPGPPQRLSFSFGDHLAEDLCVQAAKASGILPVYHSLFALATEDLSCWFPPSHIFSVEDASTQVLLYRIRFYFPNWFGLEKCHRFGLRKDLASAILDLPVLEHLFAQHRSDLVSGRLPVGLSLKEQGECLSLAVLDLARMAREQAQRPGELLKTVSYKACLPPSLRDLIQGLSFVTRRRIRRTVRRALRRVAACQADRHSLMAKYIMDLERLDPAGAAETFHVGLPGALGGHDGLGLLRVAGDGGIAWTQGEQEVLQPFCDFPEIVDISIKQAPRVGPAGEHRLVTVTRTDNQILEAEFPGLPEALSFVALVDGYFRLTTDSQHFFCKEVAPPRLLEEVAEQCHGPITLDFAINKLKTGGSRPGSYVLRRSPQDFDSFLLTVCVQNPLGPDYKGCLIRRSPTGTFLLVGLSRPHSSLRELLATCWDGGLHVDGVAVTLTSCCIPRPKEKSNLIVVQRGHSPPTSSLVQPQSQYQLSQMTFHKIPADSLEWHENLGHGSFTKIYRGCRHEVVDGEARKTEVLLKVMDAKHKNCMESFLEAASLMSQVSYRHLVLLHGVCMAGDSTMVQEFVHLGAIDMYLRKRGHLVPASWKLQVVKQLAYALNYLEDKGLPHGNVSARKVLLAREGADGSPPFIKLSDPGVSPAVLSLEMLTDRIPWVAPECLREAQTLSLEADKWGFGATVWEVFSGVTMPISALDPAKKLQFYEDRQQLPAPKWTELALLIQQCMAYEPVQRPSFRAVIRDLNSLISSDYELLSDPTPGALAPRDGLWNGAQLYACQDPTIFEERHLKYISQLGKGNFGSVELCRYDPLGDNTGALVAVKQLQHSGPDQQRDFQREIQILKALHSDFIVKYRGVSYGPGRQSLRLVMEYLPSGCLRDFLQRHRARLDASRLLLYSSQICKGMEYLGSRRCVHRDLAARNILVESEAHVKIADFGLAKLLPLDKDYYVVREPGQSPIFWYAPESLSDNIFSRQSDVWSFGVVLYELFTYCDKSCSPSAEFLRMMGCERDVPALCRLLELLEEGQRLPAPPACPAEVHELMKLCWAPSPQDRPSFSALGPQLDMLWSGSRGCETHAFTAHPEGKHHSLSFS
T2 sequence (Q96PY6 whole entry): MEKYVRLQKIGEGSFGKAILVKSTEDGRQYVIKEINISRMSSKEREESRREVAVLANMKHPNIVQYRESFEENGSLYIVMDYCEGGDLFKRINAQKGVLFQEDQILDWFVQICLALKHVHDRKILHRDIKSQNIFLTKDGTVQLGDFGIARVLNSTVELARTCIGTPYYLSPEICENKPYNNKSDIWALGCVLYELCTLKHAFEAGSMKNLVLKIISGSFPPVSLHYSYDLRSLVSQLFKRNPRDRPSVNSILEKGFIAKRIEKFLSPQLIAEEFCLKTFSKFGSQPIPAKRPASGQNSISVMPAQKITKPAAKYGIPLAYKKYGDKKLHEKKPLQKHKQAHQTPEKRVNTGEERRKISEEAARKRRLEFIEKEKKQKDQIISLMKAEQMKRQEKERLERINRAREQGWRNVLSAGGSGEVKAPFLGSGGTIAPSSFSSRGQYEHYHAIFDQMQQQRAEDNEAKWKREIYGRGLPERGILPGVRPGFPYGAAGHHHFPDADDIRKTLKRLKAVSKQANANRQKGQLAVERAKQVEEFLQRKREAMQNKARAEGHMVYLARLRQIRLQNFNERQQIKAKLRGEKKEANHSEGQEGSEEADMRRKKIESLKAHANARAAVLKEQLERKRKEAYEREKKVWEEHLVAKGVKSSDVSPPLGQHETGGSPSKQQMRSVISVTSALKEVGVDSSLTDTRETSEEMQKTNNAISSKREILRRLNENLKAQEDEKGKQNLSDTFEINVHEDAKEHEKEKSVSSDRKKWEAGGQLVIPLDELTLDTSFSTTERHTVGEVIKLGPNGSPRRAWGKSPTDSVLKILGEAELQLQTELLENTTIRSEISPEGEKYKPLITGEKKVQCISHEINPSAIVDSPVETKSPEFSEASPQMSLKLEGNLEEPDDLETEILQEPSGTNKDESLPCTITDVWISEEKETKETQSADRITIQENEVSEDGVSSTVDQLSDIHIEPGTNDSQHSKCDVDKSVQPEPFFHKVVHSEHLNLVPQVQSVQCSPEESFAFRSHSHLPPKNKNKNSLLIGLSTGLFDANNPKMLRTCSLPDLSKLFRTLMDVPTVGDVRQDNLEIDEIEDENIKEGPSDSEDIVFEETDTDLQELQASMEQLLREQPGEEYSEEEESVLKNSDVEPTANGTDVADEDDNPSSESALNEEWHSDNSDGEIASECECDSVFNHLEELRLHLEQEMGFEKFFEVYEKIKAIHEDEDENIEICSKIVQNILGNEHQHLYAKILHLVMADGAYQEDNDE
T3 sequence (Q9UK32 whole entry): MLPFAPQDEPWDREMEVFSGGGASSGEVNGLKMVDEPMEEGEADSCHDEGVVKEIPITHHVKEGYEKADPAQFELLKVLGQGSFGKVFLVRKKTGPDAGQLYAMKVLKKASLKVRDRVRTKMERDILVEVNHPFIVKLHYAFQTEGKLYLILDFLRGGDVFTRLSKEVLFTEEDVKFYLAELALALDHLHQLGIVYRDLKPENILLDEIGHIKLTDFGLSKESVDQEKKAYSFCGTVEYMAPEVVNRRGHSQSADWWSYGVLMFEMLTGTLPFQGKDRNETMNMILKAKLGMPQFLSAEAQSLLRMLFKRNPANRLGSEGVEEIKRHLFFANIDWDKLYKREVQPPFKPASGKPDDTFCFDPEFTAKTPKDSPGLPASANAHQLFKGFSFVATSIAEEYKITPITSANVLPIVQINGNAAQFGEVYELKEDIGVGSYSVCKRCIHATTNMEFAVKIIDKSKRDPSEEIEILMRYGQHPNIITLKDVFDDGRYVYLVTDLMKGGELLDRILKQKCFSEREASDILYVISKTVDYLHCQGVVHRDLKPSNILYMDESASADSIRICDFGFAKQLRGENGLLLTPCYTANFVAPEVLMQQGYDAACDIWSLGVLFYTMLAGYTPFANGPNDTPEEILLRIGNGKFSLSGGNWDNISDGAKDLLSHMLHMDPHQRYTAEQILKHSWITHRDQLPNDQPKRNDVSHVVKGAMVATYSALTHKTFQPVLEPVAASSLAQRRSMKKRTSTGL

CS(=O)(=O)Nc1ccccc1Nc1nc(Nc2cccc(OCCN)c2)ncc1Cl [CZC31326, N-(2-(2-(3-(2-aminoethoxy)phenylamino)-5-chloropyrimidin-4-ylamino)phenyl)methanesulfonamide]
inhibition at 10 µM [1]: 98.1%
inhibition at 10 µM [2]: 95.7%
Competition % [3]: 96.7%
Competition % [4]: 98.5%
inhibition at 10 µM [5]: 96.8%
inhibition at 10 µM [6]: 92.4%
inhibition at 10 µM [7]: 97.3%
